Source: patent US10179770B2, “Quinolines derivatives as novel anticancer agents” (GENOSCIENCE PHARMA, priority 2013, dated 2019)

Columns and labels:
Assay in all cases: NCI-60 screen (SRB)
Format in all cases: cell-based
[1] = test system: ACHN; details: ACHN (Renal)
Experimental: (§1) The human tumor cell lines of the cancer screening panel are grown in RPMI 1640 medium containing 5% fetal bovine serum and 2 mM L-glutamine. For a typical screening experiment, cells are inoculated into 96 well microtiter plates in 100 μL at plating densities ranging from 5,000 to 40,000 cells/well depending on the doubling time of individual cell lines. After cell inoculation, the microtiter plates are incubated at 37° C., 5% CO2, 95% air and 100% relative humidity for 24 h prior to addition of experimental drugs.
(§2) After 24 h, two plates of each cell line are fixed in situ with TCA, to represent a measurement of the cell population for each cell line at the time of drug addition (Tz). Experimental drug is solubilized in dimethyl sulfoxide at 400-fold the desired final maximum test concentration and stored frozen prior to use. At the time of drug addition, an aliquot of frozen concentrate is thawed and diluted to twice the desired final maximum test concentration with complete medium containing 50 μg/ml gentamicin. Additional four, 10-fold or ½ log serial dilutions are made to provide a total of five drug concentrations plus control. Aliquots of 100 μl of these different drug dilutions are added to the appropriate microtiter wells already containing 100 μl of medium, resulting in the required final drug concentrations.
(§3) Following drug addition, the plates are incubated for an additional 48 h at 37° C., 5% CO2, 95% air, and 100% relative humidity. For adherent cells, the assay is terminated by the addition of cold TCA. Cells are fixed in situ by the gentle addition of 50 μl of cold 50% (w/v) TCA (final concentration, 10% TCA) and incubated for 60 minutes at 4° C. The supernatant is discarded, and the plates are washed five times with tap water and air dried. Sulforhodamine B (SRB) solution (100 μl) at 0.4% (w/v) in 1% acetic acid is added to each well, and plates are incubated for 10 minutes at room temperature. After staining, unbound dye is removed by washing five times with 1% acetic acid and the plates are air dried. Bound stain is subsequently solubilized with 10 mM trizma base, and the absorbance is read on an automated plate reader at a wavelength of 515 nm. For suspension cells, the methodology is the same except that the assay is terminated by fixing settled cells at the bottom of the wells by gently adding 50 μl of 80% TCA (final concentration, 16% TCA). Using the seven absorbance measurements [time zero, (Tz), control growth, (C), and test growth in the presence of drug at the five concentration levels (Ti)], the percentage growth is calculated at each of the drug concentrations levels.
(§4) Percentage growth inhibition is calculated as: [(Ti−Tz)/(C−Tz)]×100 for concentrations for which Ti>/=Tz (1) [(Ti−Tz)/Tz]×100 for concentrations for which Ti<Tz (2)
(§5) Growth inhibition of 50% (GI50) is calculated from [(Ti−Tz)/(C−Tz)]×100=50 (3)
(§6) which is the drug concentration resulting in a 50% reduction in the net protein increase (as measured by SRB staining) in control cells during the drug incubation.
(§7) The drug concentration resulting in total growth inhibition (TGI) is calculated from Ti=Tz (4)
(§8) The LC50 (concentration of drug resulting in a 50% reduction in the measured protein at the end of the drug treatment as compared to that at the beginning) indicating a net loss of cells following treatment is calculated from [(Ti−Tz)/Tz]×100=−50 (5)
(§9) Values are calculated for each of these three parameters if the level of activity is reached; however, if the effect is not reached or is exceeded, the value for that parameter is expressed as greater or less than the maximum or minimum concentration tested.

[2] = test system: CAKI-1; details: CAKI-1 (Renal)
Experimental: as §1, §2, §3, §4, §5, §6, §7, §8, §9

[3] = test system: CCRF-CEM; details: CCRF-CEM (Leukemia)
Experimental: as §1, §2, §3, §4, §5, §6, §7, §8, §9

[4] = test system: DU-145; details: DU-145 (Prostate)
Experimental: as §1, §2, §3, §4, §5, §6, §7, §8, §9

[5] = test system: HOP-92; details: HOP-92 (Non-Small Cell Lung)
Experimental: as §1, §2, §3, §4, §5, §6, §7, §8, §9

[6] = test system: HS 578T; details: HS 578T (Breast)
Experimental: as §1, §2, §3, §4, §5, §6, §7, §8, §9

[7] = test system: IGROVI; details: IGROVI (Ovarian)
Experimental: as §1, §2, §3, §4, §5, §6, §7, §8, §9

[8] = test system: K-562; details: K-562 (Leukemia)
Experimental: as §1, §2, §3, §4, §5, §6, §7, §8, §9

[9] = test system: KM12; details: KM12 (Colon)
Experimental: as §1, §2, §3, §4, §5, §6, §7, §8, §9

[10] = test system: MDA-MB-231/ATCC; details: MDA-MB-231/ATCC (Breast)
Experimental: as §1, §2, §3, §4, §5, §6, §7, §8, §9

[11] = test system: NCI-H226; details: NCI-H226 (Non-Small Cell Lung)
Experimental: as §1, §2, §3, §4, §5, §6, §7, §8, §9

[12] = test system: NCI/ADR-RES; details: NCI/ADR-RES (Ovarian)
Experimental: as §1, §2, §3, §4, §5, §6, §7, §8, §9

[13] = test system: SF-268; details: SF-268 (CNS)
Experimental: as §1, §2, §3, §4, §5, §6, §7, §8, §9

[14] = test system: SK-MEL-2; details: SK-MEL-2 (Melanoma)
Experimental: as §1, §2, §3, §4, §5, §6, §7, §8, §9

[15] = test system: SK-OV3; details: SK-OV3 (Ovarian)
Experimental: as §1, §2, §3, §4, §5, §6, §7, §8, §9

[16] = test system: SW-620; details: SW-620 (Colon)
Experimental: as §1, §2, §3, §4, §5, §6, §7, §8, §9

[17] = test system: UO-31; details: UO-31 (Renal)
Experimental: as §1, §2, §3, §4, §5, §6, §7, §8, §9

[18] = Homo sapiens, read-out: LC50 (the source's name)

CC(C)(C)NC1CCN(c2cc(-c3ccc(Cl)cc3)nc3ccccc23)CC1.Cl.Cl [XII-4, 2-(4-chloro-phenyl)-4-(4-N-tert-butylamino-piperidin-1-yl)quinoline dihydrochloride]
Growth percent at 10 μM [1]: + (cell growth 60 > % < 80) | Growth percent at 10 μM [2]: +++ (cell growth 20 > % < 40) | Growth percent at 10 μM [3]: +++ (cell growth 20 > % < 40) | Growth percent at 10 μM [4]: − (cell growth % > 80) | Growth percent at 10 μM [5]: ++ (cell growth 40 > % < 60) | Growth percent at 10 μM [6]: + (cell growth 60 > % < 80) | Growth percent at 10 μM [7]: ++ (cell growth 40 > % < 60) | Growth percent at 10 μM [8]: × (cell growth 0 < % > −20) | Growth percent at 10 μM [9]: + (cell growth 60 > % < 80) | Growth percent at 10 μM [10]: ×× (cell growth −20 < % > −40) | Growth percent at 10 μM [11]: − (cell growth % > 80) | Growth percent at 10 μM [12]: + (cell growth 60 > % < 80) | Growth percent at 10 μM [13]: + (cell growth 60 > % < 80) | Growth percent at 10 μM [14]: − (cell growth % > 80) | Growth percent at 10 μM [15]: − (cell growth % > 80) | Growth percent at 10 μM [16]: ++++ (cell growth 0 > % < 20) | Growth percent at 10 μM [17]: +++ (cell growth 20 > % < 40)

CCN(CC)C1CCN(C(C)c2cc(-c3ccccc3)nc3ccccc23)CC1.Cl.Cl (stereo not shown) [XIX-3, 2-phenyl-4-{1-[4-(N,N-diethylamino)piperidin-1-yl]-eth-1-yl}quinoline dihydrochloride]
TGI [1]: 23 µM | Growth percent at 10 μM [1]: + (cell growth 60 > % < 80) | GI50 ([1]; Homo sapiens): 11 µM | LC50 (concentration causing 50% net cell kill) ([1]; Homo sapiens): 50 µM | TGI [2]: 28 µM | Growth percent at 10 μM [2]: + (cell growth 60 > % < 80) | GI50 ([2]; Homo sapiens): 13 µM | CC50 [2, 18]: 58 µM | TGI [3]: 25 µM | Growth percent at 10 μM [3]: ++ (cell growth 40 > % < 60) | GI50 ([3]; Homo sapiens): 9 µM | CC50 [3, 18]: 62 µM | TGI [4]: 28 µM | Growth percent at 10 μM [4]: − (cell growth % > 80) | GI50 ([4]; Homo sapiens): 14 µM | CC50 [4, 18]: 54 µM | TGI [5]: 17 µM | Growth percent at 10 μM [5]: ++ (cell growth 40 > % < 60) | GI50 ([5]; Homo sapiens): 3 µM | CC50 [5, 18]: 47 µM | TGI [6]: 35 µM | Growth percent at 10 μM [6]: + (cell growth 60 > % < 80) | GI50 ([6]; Homo sapiens): 11 µM | LC50 (concentration killing 50% of cells) ([6]; Homo sapiens): 100 µM | GI50 ([7]; Homo sapiens): 5 µM | CC50 [7, 18]: 63 µM | TGI [7]: 21 µM | Growth percent at 10 μM [7]: ++ (cell growth 40 > % < 60) | GI50 ([8]; Homo sapiens, K562): 2 µM | CC50 ([8]; Homo sapiens, K562, read-out: LC50 (the source's name)): 15 µM | TGI [8]: 5 µM | Growth percent at 10 μM [8]: × (cell growth 0 > % > −20) | GI50 ([9]; Homo sapiens): 10 µM | CC50 [9, 18]: 50 µM | TGI [9]: 22 µM | Growth percent at 10 μM [9]: ++ (cell growth 40 > % < 60) | GI50 ([10]; Homo sapiens): 3 µM | CC50 [10, 18]: 47 µM | TGI [10]: 14 µM | Growth percent at 10 μM [10]: ++ (cell growth 40 > % < 60) | GI50 ([11]; Homo sapiens): 19 µM | CC50 [11, 18]: 74 µM | TGI [11]: 38 µM | Growth percent at 10 μM [11]: − (cell growth % > 80) | GI50 ([12]; Homo sapiens): 12 µM | LC50 (concentration giving 50% net cell kill) ([12]; Homo sapiens): 56 µM | TGI [12]: 26 µM | Growth percent at 10 μM [12]: + (cell growth 60 > % < 80) | GI50 ([13]; Homo sapiens): 10 µM | CC50 [13, 18]: 55 µM | TGI [13]: 24 µM | Growth percent at 10 μM [13]: + (cell growth 60 > % < 80) | GI50 ([14]; Homo sapiens): 3 µM | CC50 [14, 18]: 27 µM | TGI [14]: 7 µM | Growth percent at 10 μM [14]: ++ (cell growth 40 > % < 60) | GI50 ([15]; Homo sapiens, SK-OV-3): 17 µM | LC50 (concentration killing 50% of cells) ([15]; Homo sapiens, SK-OV-3): 59 µM | TGI [15]: 31 µM | Growth percent at 10 μM [15]: − (cell growth % > 80) | GI50 ([16]; Homo sapiens): 4 µM | CC50 [16, 18]: 45 µM | TGI [16]: 17 µM | Growth percent at 10 μM [16]: ++ (cell growth 40 > % < 60) | GI50 ([17]; Homo sapiens): 8 µM | CC50 [17, 18]: 22 µM | TGI [17]: 22 µM | Growth percent at 10 μM [17]: ++ (cell growth 40 > % < 60)
